The results in this text go back to US5998438A, “5-cyclo indole compounds” (Allelix Biopharmaceuticals, Inc., priority 1997, dated 1999).

Like-named read-outs stand apart in the source and are kept apart here.

The target in this test is T1, 5-HT1D-like receptor (Oryctolagus cuniculus, UniProt P49144).
T1 construct: Ring segments of the vein (4-5 mm in length) were cut and the endothelium gently removed; from tissue; host or cells: saphenous vein rings (endothelium removed) of male New Zealand White rabbits
T1 sequence (P49144 whole entry): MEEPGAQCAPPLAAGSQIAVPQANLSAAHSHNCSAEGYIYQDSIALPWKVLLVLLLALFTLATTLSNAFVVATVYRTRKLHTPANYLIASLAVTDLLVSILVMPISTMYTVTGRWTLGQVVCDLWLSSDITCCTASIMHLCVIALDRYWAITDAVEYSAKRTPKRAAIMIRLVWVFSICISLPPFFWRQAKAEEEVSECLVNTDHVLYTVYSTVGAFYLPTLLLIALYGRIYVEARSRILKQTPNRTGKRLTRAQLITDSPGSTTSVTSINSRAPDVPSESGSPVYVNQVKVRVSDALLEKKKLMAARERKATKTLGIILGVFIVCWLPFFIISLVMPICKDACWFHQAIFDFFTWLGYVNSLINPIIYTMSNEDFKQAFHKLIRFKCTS
Put plainly: Agonist assay: contraction of rabbit isolated saphenous vein (5-HT1D-like receptor agonist activity). Also on record: species or system rabbit (male New Zealand White).

Setting [1] is: rabbit isolated saphenous vein ring segments, concentration causing 50% of the maximum contraction effected by the compound, with prazosin, idazoxan and indomethacin, 37° C., pH 7.4, read-out: EC50.

In turn, `CN(C)CCc1c[nH]c2ccc(C3CCCCO3)cc12` (centres unmarked) [Example 9b, 3-[2-(N,N-Dimethylamino)ethyl]-5-(tetrahydropyran-2-yl)-1H-indole] displayed an EC50 of 160 nM.

On to `CN(C)CCc1c[nH]c2ccc(C3CCCCC3)cc12` [Example 17a, 5-Cyclohexyl-3-[2-(N,N-dimethylamino)ethyl]-1H-indole], for which the EC50 was found to be 250 nM. `CN1CCC[C@H]1Cc1c[nH]c2ccc(C3CCN(C(=O)OC(C)(C)C)CC3)cc12` [Example 17d, (S)-5-(1-Aza-1-tert-butoxycarbonylcyclohex-4-yl)-3-[(N-methylpyrrolidin-2-yl)methyl]-1H-indole]: under setting [1], the EC50 is 750 nM. Take `C1=C(c2ccc3[nH]cc(CCN4CCCC4)c3c2)CCN(Cc2ccccc2)C1` [Example 15, 5-(1-Aza-1-benzylcyclohex-3-en-4-yl)-3-(2-pyrrolidinylethyl)-1H-indole]: the concentration for a half-maximal effect (EC50) under setting [1] turned out to be 220 nM.

In turn, `CN(C)CCc1c[nH]c2ccc(C3=CCCCC3)cc12` [Example 9a, 5-(Cyclohex-1-en-1-yl)-3-[2-(N,N-dimethylamino)ethyl]-1H-indole] displayed an EC50 of 960 nM.

Broadly, the EC50 is the concentration at which the effect is half-maximal.
